Experimental data published in ChEMBL document CHEMBL1201862, “PubChem BioAssay data set” (2004).
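Five compound concentrations were applied to cells in 96-well plates for 48 hours; endpoints were derived by simple linear interpolation of the resulting dose-response curve. GI50 marks 50% less growth.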 The source made the active and inactive calls. Rule as the data show it: active = GI50 up to about 1.1 µM and inactive = higher.

Columns and labels:
Experiment in all cases: DTP human tumour cell line panel, 48 h
HOP-92 = test system: HOP-92
M14 = test system: M14
NCI-H460 = test system: NCI-H460
CAKI-1 = test system: CAKI-1
TK-10 = test system: TK-10
U-251 = test system: U-251
HOP-62 = test system: HOP-62
ACHN = test system: ACHN
SK-MEL-28 = test system: SK-MEL-28
SN12C = test system: SN12C
RPMI-8226 = test system: RPMI-8226
SK-OV-3 = test system: SK-OV-3
HCT-116 = test system: HCT-116
EKVX = test system: EKVX
UACC-62 = test system: UACC-62
NCI-H522 = test system: NCI-H522

Row | Compound | GI50 (HOP-92) | GI50 (M14) | GI50 (NCI-H460) | GI50 (CAKI-1) | GI50 (TK-10) | GI50 (U-251) | GI50 (HOP-62) | GI50 (ACHN) | GI50 (SK-MEL-28) | GI50 (SN12C) | GI50 (RPMI-8226) | GI50 (SK-OV-3) | GI50 (HCT-116) | GI50 (EKVX) | GI50 (UACC-62) | GI50 (NCI-H522)
1 | Cn1c(=O)nc2n(-c3cc(C(F)(F)F)cc(C(F)(F)F)c3)c3ccccc3nc-2c1=O | 45.1 µM (inactive) | > 100 µM (inactive) | > 100 µM (inactive) | > 100 µM (inactive) | > 100 µM (inactive) | > 100 µM (inactive) | > 100 µM (inactive) | 75.3 µM (inactive) | > 100 µM (inactive) | > 100 µM (inactive) | > 100 µM (inactive) | > 100 µM (inactive) | > 100 µM (inactive) | > 100 µM (inactive) | – | –
2 | CCOC(=O)C(=O)Nc1ccc(Cl)c(C(F)(F)F)c1 | < 0.01 µM (active) | > 100 µM (inactive) | – | > 100 µM (inactive) | > 100 µM (inactive) | > 100 µM (inactive) | > 100 µM (inactive) | > 100 µM (inactive) | > 100 µM (inactive) | > 100 µM (inactive) | > 100 µM (inactive) | > 100 µM (inactive) | > 100 µM (inactive) | > 100 µM (inactive) | > 100 µM (inactive) | > 100 µM (inactive)
3 | O=C1c2ccccc2NC1(c1ccccc1)c1c(-c2ccccc2)[nH]c2ccccc12 (stereo not drawn) | 5.35 µM (inactive) | 22.1 µM (inactive) | 17.5 µM (inactive) | 8.77 µM (inactive) | – | 14.4 µM (inactive) | 67.5 µM (inactive) | 9.25 µM (inactive) | 37.5 µM (inactive) | 14 µM (inactive) | 3.88 µM (inactive) | 37.5 µM (inactive) | 7.28 µM (inactive) | 35.2 µM (inactive) | 45.3 µM (inactive) | –
4 | NCCCN(CCCN)CCCNCc1c2ccccc2c(CNCCCN(CCCN)CCCN)c2ccccc12 | 24.8 µM (inactive) | 13.6 µM (inactive) | 12 µM (inactive) | 16.2 µM (inactive) | 10.8 µM (inactive) | 16.7 µM (inactive) | 14.4 µM (inactive) | 11.7 µM (inactive) | 7.16 µM (inactive) | 15.4 µM (inactive) | 3.24 µM (inactive) | – | 14.9 µM (inactive) | 12.8 µM (inactive) | 7.21 µM (inactive) | 11.6 µM (inactive)
5 | O=C(Nc1ccccc1-c1nn(CO)c(=S)n(CO)c1=O)C(F)(F)F | > 100 µM (inactive) | > 100 µM (inactive) | > 100 µM (inactive) | > 100 µM (inactive) | > 100 µM (inactive) | > 100 µM (inactive) | > 100 µM (inactive) | > 100 µM (inactive) | > 100 µM (inactive) | > 100 µM (inactive) | – | > 100 µM (inactive) | > 100 µM (inactive) | > 100 µM (inactive) | > 100 µM (inactive) | > 100 µM (inactive)
6 | O=C1C(O)=C(CN(CCCl)CCCl)C(=O)c2ccccc21 | 56.5 µM (inactive) | 65.6 µM (inactive) | 29.2 µM (inactive) | 39.7 µM (inactive) | > 100 µM (inactive) | 64.3 µM (inactive) | > 100 µM (inactive) | 35.2 µM (inactive) | > 100 µM (inactive) | 57.1 µM (inactive) | – | > 100 µM (inactive) | 34.4 µM (inactive) | > 100 µM (inactive) | 39.6 µM (inactive) | 66.8 µM (inactive)
7 | CC(C)=CC(C(O)c1ccccc1)S(=O)(=O)c1nccn1C (stereo not drawn) | > 100 µM (inactive) | > 100 µM (inactive) | > 100 µM (inactive) | – | > 100 µM (inactive) | > 100 µM (inactive) | > 100 µM (inactive) | > 100 µM (inactive) | > 100 µM (inactive) | > 100 µM (inactive) | > 100 µM (inactive) | > 100 µM (inactive) | > 100 µM (inactive) | > 100 µM (inactive) | > 100 µM (inactive) | > 100 µM (inactive)
8 | COc1c2c(cc3nc4ccccc4nc13)CCC(C(C)(C)O)C2 (stereo not drawn) | 76.2 µM (inactive) | > 100 µM (inactive) | > 100 µM (inactive) | > 100 µM (inactive) | > 100 µM (inactive) | > 100 µM (inactive) | > 100 µM (inactive) | > 100 µM (inactive) | > 100 µM (inactive) | > 100 µM (inactive) | – | > 100 µM (inactive) | > 100 µM (inactive) | > 100 µM (inactive) | > 100 µM (inactive) | 31.8 µM (inactive)
9 | COC/C=C\COC | > 100 µM (inactive) | > 100 µM (inactive) | > 100 µM (inactive) | > 100 µM (inactive) | > 100 µM (inactive) | > 100 µM (inactive) | > 100 µM (inactive) | > 100 µM (inactive) | > 100 µM (inactive) | > 100 µM (inactive) | > 100 µM (inactive) | > 100 µM (inactive) | > 100 µM (inactive) | > 100 µM (inactive) | > 100 µM (inactive) | –
